The values that follow come from US20020103398A1, “2-Amino-2-alky-4 heptenoic and heptynoic acid derivatives useful as nitric oxide synthase inhibitors” (priority 2000, published 2002).

Holding throughout (assay type): biochemical
The target of test [1] is T1, human neuronal constitutive NOS (hncNOS) (Homo sapiens, UniProt P29475).
T1 construct: made in house; host or cells: Sf9 insect cells, baculovirus vector
The test can be described thus: Citrulline assay for nitric oxide synthase (hncNOS). As to conditions: recombinant enzyme from Sf9 cells; 30 μM L-arginine; calmodulin 40-100 nM; 37° C., 15 minutes. The text has this: (§1) Nitric oxide synthase (NOS) activity can be measured by monitoring the conversion of L-[2,3-^3H]-arginine to L-[2,3-^3H]-citrulline (Bredt and Snyder, Proc. Natl. Acad. Sci. U.S.A., 87, 682-685, 1990 and Moore et al, J. Med. Chem. 39, 669-672, 1996). Human inducible NOS (hiNOS), human endothelial constitutive NOS (hecNOS) and human neuronal constitutive NOS (hncNOS) are each cloned from RNA extracted from human tissue. The cDNA for human inducible NOS (hiNOS) is isolated from a λcDNA library made from RNA extracted from a colon sample from a patient with ulcerative colitis. The cDNA for human endothelial constitutive NOS (hecNOS) is isolated from a λcDNA library made from RNA extracted from human umbilical vein endothelial cells (HUVEC) and the cDNA for human neuronal constitutive NOS (hncNOS) is isolated from a λcDNA library made from RNA extracted from human cerebellum obtained from a cadaver. […] After mixing the resin is allowed to settle and L-[2,3-^3H]-Citrulline formation is determined by counting aliquots of the supernatant with a liquid scintillation counter. IC50 values can be determined by testing each compound at several concentrations. […]

Test [2] deals with T2, human endothelial constitutive NOS (hecNOS) (Homo sapiens, UniProt P29474).
T2 construct: made in house; host or cells: Sf9 insect cells, baculovirus vector
The test can be described thus: Citrulline assay for nitric oxide synthase (hecNOS). To be noted: recombinant enzyme from Sf9 cells; 30 μM L-arginine; calmodulin 40-100 nM; 37° C., 15 minutes.
Excerpt: as §1

Test [3] addresses T3, Human inducible NOS (hiNOS) (Homo sapiens, UniProt P35228).
T3 construct: made in house; host or cells: Sf9 insect cells, baculovirus vector
In words: Citrulline assay for nitric oxide synthase (hiNOS). To be noted: recombinant enzyme from Sf9 cells; 30 μM L-arginine; 37° C., 15 minutes.
Excerpt: as §1

Counter-ions that a name gives are not always drawn.

T3 sequence (P35228 whole entry): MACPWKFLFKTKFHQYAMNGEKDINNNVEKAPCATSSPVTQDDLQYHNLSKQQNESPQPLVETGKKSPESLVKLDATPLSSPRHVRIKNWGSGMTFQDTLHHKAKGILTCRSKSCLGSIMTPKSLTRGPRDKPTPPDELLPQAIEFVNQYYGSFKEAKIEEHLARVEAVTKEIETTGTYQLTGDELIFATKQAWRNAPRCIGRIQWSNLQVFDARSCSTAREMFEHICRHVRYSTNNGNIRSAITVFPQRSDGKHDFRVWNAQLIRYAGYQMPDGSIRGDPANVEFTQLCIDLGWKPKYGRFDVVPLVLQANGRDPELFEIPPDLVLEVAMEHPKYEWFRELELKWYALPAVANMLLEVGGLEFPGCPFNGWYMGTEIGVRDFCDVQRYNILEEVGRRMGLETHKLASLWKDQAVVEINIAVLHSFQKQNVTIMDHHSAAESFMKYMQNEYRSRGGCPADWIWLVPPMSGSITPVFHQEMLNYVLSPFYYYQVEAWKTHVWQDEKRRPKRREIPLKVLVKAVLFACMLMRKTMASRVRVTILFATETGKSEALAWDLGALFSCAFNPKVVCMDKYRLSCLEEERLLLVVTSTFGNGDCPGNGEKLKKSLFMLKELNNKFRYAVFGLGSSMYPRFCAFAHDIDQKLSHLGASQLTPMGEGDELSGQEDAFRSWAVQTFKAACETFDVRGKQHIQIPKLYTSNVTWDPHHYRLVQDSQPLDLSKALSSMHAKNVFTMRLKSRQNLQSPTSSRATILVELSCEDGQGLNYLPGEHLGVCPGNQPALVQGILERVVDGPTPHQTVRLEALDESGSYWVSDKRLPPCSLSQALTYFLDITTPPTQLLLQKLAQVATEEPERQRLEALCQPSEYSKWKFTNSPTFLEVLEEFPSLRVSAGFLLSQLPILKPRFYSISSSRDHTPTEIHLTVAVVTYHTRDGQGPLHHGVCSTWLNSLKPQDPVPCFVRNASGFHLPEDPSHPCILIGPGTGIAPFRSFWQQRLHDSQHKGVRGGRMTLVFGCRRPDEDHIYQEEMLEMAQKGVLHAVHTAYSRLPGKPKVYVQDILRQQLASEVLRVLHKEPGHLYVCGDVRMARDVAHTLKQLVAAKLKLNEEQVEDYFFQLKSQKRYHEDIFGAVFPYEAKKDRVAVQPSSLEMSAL
T2 sequence (P29474 2-1203): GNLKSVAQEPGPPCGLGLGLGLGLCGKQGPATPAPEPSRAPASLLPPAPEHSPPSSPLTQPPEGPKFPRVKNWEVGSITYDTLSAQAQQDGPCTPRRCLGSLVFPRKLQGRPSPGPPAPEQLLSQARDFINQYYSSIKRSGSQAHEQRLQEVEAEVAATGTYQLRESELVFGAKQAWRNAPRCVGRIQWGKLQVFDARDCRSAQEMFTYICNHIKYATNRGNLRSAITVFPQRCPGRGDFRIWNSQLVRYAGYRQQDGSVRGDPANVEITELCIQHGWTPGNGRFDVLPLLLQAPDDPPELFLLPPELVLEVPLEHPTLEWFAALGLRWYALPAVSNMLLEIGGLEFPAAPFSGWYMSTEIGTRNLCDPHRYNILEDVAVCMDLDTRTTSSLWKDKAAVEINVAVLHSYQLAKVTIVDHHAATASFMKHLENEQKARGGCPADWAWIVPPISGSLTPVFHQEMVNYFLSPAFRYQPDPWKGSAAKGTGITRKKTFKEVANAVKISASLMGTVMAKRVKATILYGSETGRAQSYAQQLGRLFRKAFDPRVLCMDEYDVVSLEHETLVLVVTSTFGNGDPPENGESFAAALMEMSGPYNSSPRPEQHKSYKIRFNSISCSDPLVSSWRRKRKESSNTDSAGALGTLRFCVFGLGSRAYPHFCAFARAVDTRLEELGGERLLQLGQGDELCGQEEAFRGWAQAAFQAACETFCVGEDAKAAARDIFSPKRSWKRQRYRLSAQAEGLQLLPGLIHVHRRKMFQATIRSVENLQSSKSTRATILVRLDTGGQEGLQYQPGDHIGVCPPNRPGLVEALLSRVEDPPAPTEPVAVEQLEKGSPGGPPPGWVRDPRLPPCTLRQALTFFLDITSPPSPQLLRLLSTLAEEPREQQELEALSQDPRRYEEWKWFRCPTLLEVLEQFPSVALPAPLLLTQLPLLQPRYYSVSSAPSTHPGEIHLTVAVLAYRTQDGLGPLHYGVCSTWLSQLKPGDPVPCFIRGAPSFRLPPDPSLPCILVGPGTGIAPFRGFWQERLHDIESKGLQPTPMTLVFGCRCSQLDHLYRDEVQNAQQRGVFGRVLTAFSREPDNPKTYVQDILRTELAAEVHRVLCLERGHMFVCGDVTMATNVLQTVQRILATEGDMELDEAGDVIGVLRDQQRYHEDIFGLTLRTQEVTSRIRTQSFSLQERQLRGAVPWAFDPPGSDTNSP
T1 sequence (P29475 whole entry): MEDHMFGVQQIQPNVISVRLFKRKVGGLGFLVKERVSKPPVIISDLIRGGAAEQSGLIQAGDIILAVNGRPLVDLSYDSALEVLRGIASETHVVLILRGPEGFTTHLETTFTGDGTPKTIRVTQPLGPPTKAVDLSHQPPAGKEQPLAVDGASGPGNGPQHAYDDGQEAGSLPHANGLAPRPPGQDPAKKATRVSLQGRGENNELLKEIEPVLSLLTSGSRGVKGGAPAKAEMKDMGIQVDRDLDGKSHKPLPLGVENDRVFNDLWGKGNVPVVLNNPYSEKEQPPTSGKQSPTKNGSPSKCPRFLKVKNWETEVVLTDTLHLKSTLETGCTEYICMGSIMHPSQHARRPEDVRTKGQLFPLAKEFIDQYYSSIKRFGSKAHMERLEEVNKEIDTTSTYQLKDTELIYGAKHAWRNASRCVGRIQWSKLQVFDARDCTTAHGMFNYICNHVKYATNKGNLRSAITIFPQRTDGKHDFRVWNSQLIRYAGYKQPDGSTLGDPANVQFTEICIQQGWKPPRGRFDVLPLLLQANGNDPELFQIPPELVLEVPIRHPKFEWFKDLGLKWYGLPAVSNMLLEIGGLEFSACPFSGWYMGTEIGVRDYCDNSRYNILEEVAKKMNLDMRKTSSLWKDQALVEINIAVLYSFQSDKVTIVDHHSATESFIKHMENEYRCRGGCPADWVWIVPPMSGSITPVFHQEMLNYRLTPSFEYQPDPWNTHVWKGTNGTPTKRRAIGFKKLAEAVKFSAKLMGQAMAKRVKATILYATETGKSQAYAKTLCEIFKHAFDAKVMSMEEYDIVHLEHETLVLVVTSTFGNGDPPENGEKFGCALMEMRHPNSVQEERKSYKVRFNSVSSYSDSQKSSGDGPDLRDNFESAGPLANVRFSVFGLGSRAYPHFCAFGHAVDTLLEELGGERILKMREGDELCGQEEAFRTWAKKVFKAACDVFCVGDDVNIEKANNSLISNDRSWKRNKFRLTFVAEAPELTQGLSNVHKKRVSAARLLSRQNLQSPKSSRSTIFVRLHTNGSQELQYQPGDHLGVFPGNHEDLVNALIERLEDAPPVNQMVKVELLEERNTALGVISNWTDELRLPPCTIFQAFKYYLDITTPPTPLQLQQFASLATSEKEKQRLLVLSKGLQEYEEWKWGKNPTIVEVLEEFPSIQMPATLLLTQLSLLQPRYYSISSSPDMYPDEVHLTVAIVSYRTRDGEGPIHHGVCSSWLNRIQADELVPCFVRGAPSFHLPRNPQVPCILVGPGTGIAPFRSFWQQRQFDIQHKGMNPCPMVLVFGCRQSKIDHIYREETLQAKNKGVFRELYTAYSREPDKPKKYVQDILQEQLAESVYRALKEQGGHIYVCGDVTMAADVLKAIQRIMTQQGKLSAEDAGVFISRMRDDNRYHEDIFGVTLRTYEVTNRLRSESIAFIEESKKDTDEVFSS

Usually IC50 stands for the concentration that gives 50% inhibition. `CC(=N)NCC/C=C\CC(C)(N)C(=O)O` (racemic) [Example 1, (2R/S,4Z)-2-amino-2-methyl-7-[(1-iminoethyl)amino]-4-heptenoic Acid, Dihydrochloride]: the IC50 in test [1] was found to be 122 µM; in test [2] it was 386 µM; in test [3], 34 µM.
